Results as given in patent publication US9120779B2, “Inhibitors of HCV NS5A” (PRESIDIO PHARMACEUTICALS, INC., priority 2008, dated 2015).

Tested on: HCV genotype 1b replicon in Huh 7 cells
Assay: HCV replicon assay (luciferase readout, 1b_Huh-Luc/Neo-ET cell line)
Assay type: cell-based
Conditions: Hepatitis C virus, Huh-7, 72 h, read-out: Inhibition of HCV genotype 1b, Table 3, 72 h incubation
Experimental: Biological activity of the compounds of the invention was determined using an HCV replicon assay. The 1b_Huh-Luc/Neo-ET cell line persistently expressing a bicistronic genotype 1b replicon in Huh 7 cells was obtained from R^eBLikon GMBH. This cell line was used to test compound inhibition using luciferase enzyme activity readout as a measurement of compound inhibition of replicon levels.
On Day 1 (the day after plating), each compound is added in triplicate to the cells. Plates incubated for 72 h prior to running the luciferase assay. Enzyme activity was measured using a Bright-Glo Kit (cat. number E2620) manufactured by Promega Corporation. The following equation was used to generate a percent control value for each compound. % Control=(Average Compound Value/Average Control)*100
The EC50 value was determined using GraphPad Prism and the following equation: Y=Bottom+(Top−Bottom)/(1+10^((Log IC50−X)*HillSlope))
EC50 values of compounds are repeated several times in the replicon assay.
Example compounds of the disclosed invention are illustrated in Tables 1-9 attached as appendices. The tables show inhibitory activity of many of the example compounds with respect to HCV 1b. […] The tables further provide mass spectrometry results for the synthesized example compounds.

SMILES | EC50 [nM]
CC(C)(C)OC(=O)N[C@@H](C(=O)N1CCC[C@H]1c1ncc(-c2cc(F)c(N3CCC(c4cnc([C@@H]5CCCCN5C(=O)[C@H](NC(=O)OC(C)(C)C)c5ccccc5)[nH]4)CC3)c(F)c2)[nH]1)c1ccccc1 [compound 483] | < 1
O=C(N[C@@H](C(=O)N1CCC[C@H]1c1ncc(-c2cc(F)c(N3CCC(c4cnc([C@@H]5CCCCN5C(=O)[C@H](NC(=O)C5CC5)c5ccccc5)[nH]4)CC3)c(F)c2)[nH]1)c1ccccc1)C1CC1 [compound 484] | < 1
O=C(N[C@@H](C(=O)N1CCC[C@H]1c1ncc(-c2cc(F)c(N3CCC(c4cnc([C@@H]5CCCN5C(=O)[C@H](NC(=O)C5CC5)c5ccccc5)[nH]4)CC3)c(F)c2)[nH]1)c1ccccc1)C1CC1 [compound 485] | < 1
COC(=O)N[C@@H](C(=O)N1CCC[C@H]1c1ncc(-c2cc(F)c(N3CCC(c4cnc([C@@H]5CCCCN5C(=O)[C@H](NC(=O)C5CC5)c5ccccc5)[nH]4)CC3)c(F)c2)[nH]1)c1ccccc1 [compound 486] | < 1
COC(=O)N[C@@H](C(=O)N1CCC[C@H]1c1ncc(-c2cc(F)c(N3CCC(c4cnc([C@@H]5CCCCN5C(=O)[C@H](NC(=O)OC)c5ccccc5)[nH]4)CC3)c(F)c2)[nH]1)c1ccccc1 [compound 487] | < 1
COC(=O)N[C@@H](C(=O)N1CCC[C@H]1c1ncc(-c2cc(F)c(N3CCC(c4cnc([C@@H]5CCCN5C(=O)[C@H](NC(=O)N5CCCCC5)c5ccccc5)[nH]4)CC3)c(F)c2)[nH]1)c1ccccc1 [compound 488] | < 1
COC(=O)N[C@@H](C(=O)N1CCC[C@H]1c1ncc(-c2cc(F)c(N3CCC(c4cnc([C@@H]5COCCN5C(=O)[C@H](NC(=O)OC(C)(C)C)c5ccccc5)[nH]4)CC3)c(F)c2)[nH]1)c1ccccc1 [compound 489] | < 1
COC(=O)N[C@H](C(=O)N1CCC[C@H]1c1ncc(C2CCN(c3c(F)cc(-c4cnc([C@@H]5CCCN5C(=O)[C@H](NC(=O)OC)c5ccccc5)[nH]4)cc3F)CC2)[nH]1)C(C)C [compound 490] | < 1
COC(=O)N[C@@H](C(=O)N1CCCC[C@H]1c1ncc(C2CCN(c3c(F)cc(-c4cnc([C@@H]5CCCN5C(=O)[C@@H](c5ccccc5)N5CCCCC5)[nH]4)cc3F)CC2)[nH]1)c1ccccc1 [compound 491] | < 1
COC(=O)N[C@@H](C(=O)N1CCC[C@H]1c1ncc(-c2cc(F)c(N3CCC(c4cnc([C@@H]5COCCN5C(=O)[C@H](NC(=O)OC)c5ccccc5)[nH]4)CC3)c(F)c2)[nH]1)c1ccccc1 [compound 492] | < 1
COC(=O)N[C@@H](C(=O)N1CCCC[C@H]1c1ncc(C2CCN(c3c(F)cc(-c4cnc([C@@H]5CCCN5C(=O)[C@H](NC(=O)C5CC5)c5ccccc5)[nH]4)cc3F)CC2)[nH]1)c1ccccc1 [compound 493] | < 1
COC(=O)N[C@@H](C(=O)N1CCC[C@H]1c1ncc(-c2cc(F)c(N3CCC(c4cnc([C@@H]5COCCN5C(=O)[C@H](NC(=O)C5CC5)c5ccccc5)[nH]4)CC3)c(F)c2)[nH]1)c1ccccc1 [compound 494] | < 1
O=C(N[C@@H](C(=O)N1CCC[C@H]1c1ncc(-c2cc(F)c(N3CCC(c4cnc([C@@H]5COCCN5C(=O)[C@@H](c5ccccc5)N5CCCCC5)[nH]4)CC3)c(F)c2)[nH]1)c1ccccc1)C1CC1 [compound 495] | < 1
COC(=O)N[C@@H](C(=O)N1CCC[C@H]1c1ncc(-c2cc(F)c(N3CCC(c4cnc([C@@H]5CCCCN5C(=O)[C@@H](c5ccccc5)N5CCCCC5)[nH]4)CC3)c(F)c2)[nH]1)c1ccccc1 [compound 496] | < 1
COC(=O)N[C@@H](C(=O)N1CCOC[C@H]1c1ncc(C2CCN(c3c(F)cc(-c4cnc([C@@H]5CCCN5C(=O)[C@H](NC(=O)OC(C)(C)C)c5ccccc5)[nH]4)cc3F)CC2)[nH]1)c1ccccc1 [compound 497] | < 1
COC(=O)N[C@@H](C(=O)N1CCC[C@H]1c1ncc(-c2cc(F)c(N3CCC(c4cnc([C@@H]5CCCN5C(=O)[C@H](NC(=O)OC)C(C)C)[nH]4)CC3)c(F)c2)[nH]1)C(C)C [compound 498] | 1 to 9.9
COC(=O)N[C@H](C(=O)N1CCC[C@H]1c1ncc(-c2cc(F)c(N3CCC(c4cnc([C@@H]5CCCN5C(=O)[C@@H](NC(=O)OC)C(C)C)[nH]4)CC3)c(F)c2)[nH]1)C(C)C [compound 499] | < 1
COC(=O)N[C@H](C(=O)N1CCCC[C@H]1c1ncc(C2CCN(c3c(F)cc(-c4cnc([C@@H]5CCCN5C(=O)[C@H](NC(=O)OC)c5ccccc5)[nH]4)cc3F)CC2)[nH]1)C(C)C [compound 500] | < 1
COC(=O)N[C@@H](C(=O)N1CCC[C@H]1c1ncc(-c2cc(F)c(N3CCC(c4cnc([C@@H]5CCCCN5C(=O)[C@H](NC(=O)OC)C(C)C)[nH]4)CC3)c(F)c2)[nH]1)c1ccccc1 [compound 501] | < 1
COC(=O)N[C@@H](C(=O)N1CCOC[C@H]1c1ncc(C2CCN(c3c(F)cc(-c4cnc([C@@H]5CCCN5C(=O)[C@H](NC(=O)C5CC5)c5ccccc5)[nH]4)cc3F)CC2)[nH]1)c1ccccc1 [compound 502] | < 1
COC(=O)N[C@H](C(=O)N1CCC[C@H]1c1ncc(-c2cc(F)c(N3CCC(c4cnc([C@@H]5CCCCN5C(=O)[C@@H](NC(=O)OC)C(C)C)[nH]4)CC3)c(F)c2)[nH]1)C(C)C [compound 503] | < 1
COC(=O)N[C@@H](C(=O)N1CCC[C@H]1c1ncc(-c2cc(F)c(N3CCC(c4cnc([C@@H]5CCCCN5C(=O)[C@H](NC(=O)OC)C(C)C)[nH]4)CC3)c(F)c2)[nH]1)C(C)C [compound 504] | > 1000
COC(=O)N[C@H](C(=O)N(C)[C@@H](C)c1ncc(C2CCN(c3c(F)cc(-c4cnc([C@@H]5CCCN5C(=O)[C@@H](NC(=O)OC)C(C)C)[nH]4)cc3F)CC2)[nH]1)C(C)C [compound 505] | < 1
COC(=O)N[C@@H](C(=O)N(C)[C@@H](C)c1ncc(C2CCN(c3c(F)cc(-c4cnc([C@@H]5CCCN5C(=O)[C@H](NC(=O)OC)c5ccccc5)[nH]4)cc3F)CC2)[nH]1)c1ccccc1 [compound 506] | < 1
COC(=O)N[C@@H](C(=O)N1CCOC[C@H]1c1ncc(-c2cc(F)c(N3CCC(c4cnc([C@@H]5CCCN5C(=O)[C@H](NC(=O)OC)c5ccccc5)[nH]4)CC3)c(F)c2)[nH]1)c1ccccc1 [compound 507] | < 1
CC(C)(C)OC(=O)N[C@@H](C(=O)N1CCOC[C@H]1c1ncc(-c2cc(F)c(N3CCC(c4cnc([C@@H]5CCCN5C(=O)[C@H](NC(=O)OC(C)(C)C)c5ccccc5)[nH]4)CC3)c(F)c2)[nH]1)c1ccccc1 [compound 508] | < 1
COC(=O)N[C@H](C(=O)N1CCOC[C@H]1c1ncc(-c2cc(F)c(N3CCC(c4cnc([C@@H]5CCCN5C(=O)[C@@H](NC(=O)OC)C(C)C)[nH]4)CC3)c(F)c2)[nH]1)C(C)C [compound 509] | < 1
O=C(N[C@@H](C(=O)N1CCOC[C@H]1c1ncc(-c2cc(F)c(N3CCC(c4cnc([C@@H]5CCCN5C(=O)[C@H](NC(=O)C5CC5)c5ccccc5)[nH]4)CC3)c(F)c2)[nH]1)c1ccccc1)C1CC1 [compound 510] | < 1
C[C@@H](c1ncc(C2CCN(c3c(F)cc(-c4cnc([C@@H]5CCCN5C(=O)[C@H](NC(=O)C5CC5)c5ccccc5)[nH]4)cc3F)CC2)[nH]1)N(C)C(=O)[C@H](NC(=O)C1CC1)c1ccccc1 [compound 511] | < 1
COC(=O)N[C@H](C(=O)N[C@@H](C)c1ncc(C2CCN(c3c(F)cc(-c4cnc([C@@H]5CCCN5C(=O)[C@@H](NC(=O)OC)C(C)C)[nH]4)cc3F)CC2)[nH]1)C(C)C [compound 512] | < 1
